The record followed here is ChEMBL document CHEMBL1201862, “PubChem BioAssay data set” (2004).

Common to all, as to experiment: NCI tumour cell line growth inhibition, 48 h
Assay [1] concerns BT-549.
Assay [2] relates to DU-145.
For assay [3], the system named is HCT-15.
Assay [4] concerns HL-60.
The test system of assay [5] is IGROV-1.
The test system of assay [6] is M14.
The test system of assay [7] is NCI-H23.
Assay [8] has as its system PC-3.
The test system of assay [9] is SF-295.
Assay [10] relates to SF-539.
The test system of assay [11] is SK-OV-3.
Assay [12] deals with SNB-19.
For assay [13], the system named is T47D.
Assay [14] deals with HCC 2998.
The subject of assay [15] is Hs-578T.
For assay [16], the system named is LOX IMVI.
Assay [17] relates to MDA-MB-231.
In assay [18] the test system is Malme-3M.
The subject of assay [19] is CAKI-1.

SMILES strings stand for the structures.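 Exposure lasted 48 hours, with cells grown in 96-well plates and compounds tested at five concentrations. GI50: concentration for 50% inhibition of growth.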 Active and inactive are the calls of the source. Cut-off read from the data, not from the text of the source: active = GI50 up to about 1.1 µM and inactive = higher.

Consider `COc1cc(C2c3cccc4cccc(c34)C3CCC(=O)N32)cc(OC)c1O` (stereo unspecified), for which the GI50 was > 50 µM (inactive) in assay [1]; > 50 µM (inactive) in [2]; > 50 µM in assay [3]; > 50 µM (inactive) in [4]; > 50 µM (inactive) in [5]; > 50 µM (inactive) in [6]. For the same compound, the GI50 in [7], in assay [8], in assay [9], in assay [10], in assay [11] and in [12] was > 50 µM (inactive) in each case. Moreover, in assay [13], the GI50 was > 50 µM (inactive).

As to `Cc1cccc2cc3c(ccc4ccccc43)c[n+]12`, the GI50 was 7.08 µM (inactive) in [1]; 64.6 µM (inactive) in [2]; 16.3 µM (inactive) in [14]; > 100 µM in assay [3]; 48.4 µM (inactive) in assay [4]; 5.38 µM (inactive) in assay [15]. The GI50 in assay [5] was 47.1 µM (inactive); in assay [16], 50 µM (inactive); in assay [17], 47.5 µM (inactive); in assay [18], 1.77 µM (inactive); in assay [7], 7.6 µM (inactive); in assay [8], 30.9 µM (inactive). The GI50 in assay [9] was 9.86 µM (inactive); in assay [10], 16.7 µM (inactive); in [12], 6.87 µM (inactive).

For `COc1ccc(-c2nc3ccccc3s2)cc1OC`, the GI50 is 15.4 µM (inactive) in assay [1]; 43.7 µM in assay [3]; > 100 µM (inactive) in assay [4]; 13.4 µM (inactive) in assay [15]; 27.1 µM (inactive) in [16]; 94.4 µM (inactive) in assay [6]. Also, the GI50 in assay [17] is 19.7 µM (inactive); in assay [7] it was 42.4 µM (inactive); in assay [8], 34.9 µM (inactive); in [9], 25.8 µM (inactive); in assay [10], 54.6 µM (inactive); in assay [11], 15.5 µM (inactive). Also, the GI50 in assay [12] is 4.75 µM (inactive).

For the compound `Nc1ccc(/N=N/c2ccccc2)cc1`, the GI50 is 65.6 µM (inactive) in assay [1]; 93.1 µM (inactive) in assay [19]; 61.5 µM (inactive) in assay [14]; 41.2 µM in assay [3]; 13.4 µM (inactive) in [4]; > 100 µM (inactive) in assay [15]. In addition, the GI50 in assay [5] was 29.4 µM (inactive); in assay [16] it was 26.7 µM (inactive); in assay [6], 44.4 µM (inactive); in assay [17], 32.7 µM (inactive); in assay [18], 75.9 µM (inactive); in assay [7], 61.5 µM (inactive). Moreover, the GI50 in assay [8] is 56.8 µM (inactive); in assay [9], 22.2 µM (inactive); in [10], 35.2 µM (inactive); in [11], > 100 µM (inactive); in assay [12] it was 84.1 µM (inactive).

Regarding `CC1CC(=O)N(N(C)C)C2(C#N)C(=O)N=C(N)C12C#N` (stereo unspecified), the GI50 in assay [19] was 23.4 µM (inactive); in assay [2], > 100 µM (inactive); in [14], > 100 µM (inactive); in assay [3] it was > 100 µM; in assay [4] it was 19.3 µM (inactive); in [15], > 100 µM (inactive). In addition, the GI50 in assay [5], in [16], in [6], in assay [17], in [18] and in [7] was > 100 µM (inactive) in each case. Moreover, the GI50 in assay [8], in assay [9], in assay [10], in [11], in assay [12] and in [13] was > 100 µM (inactive) throughout.
